Series [1] has as its system mice. Put plainly: Footshock (fighting episodes of pairs of mice). It counts as in vivo. The note with it: Mus musculus; pairs of mice pretreated 1 hour prior to second shocking; 3 out of 3 pairs blocked from fighting; read-out: Footshock, 100% blocking dose. The procedure:
A pair of mice is confined under a one liter beaker placed on a grid which presents shock to the feet. At least 5 fighting episodes are elicited in a two-minute period. Pairs of mice are marked and pretreated 1 hour prior to a second shocking. Logarithmic dose intervals are utilized up to a maximum of 100 mg/kg. At the 100% blocking dose, 3 out of 3 pairs must be blocked from fighting.

In series [2] the test system is male mice. Briefly: Inclined Screen (paralyzing effects). It counts as in vivo. The note with it: Mus musculus; groups of 6 male mice; at least 4 hours observation; maximum dose 500 mg/kg; read-out: Inclined Screen, PD50. The procedure:
Groups of 6 male mice are given the test drug (maximum dose of 500 mg/kg) and then are left on the inclined screen at least 4 hours for observation of paralyzing effects severe enough to cause them to slide off the screen. If activity is observed, additional doses are taken until at least two are reached at which some, but not all of the animals slide off the screen. Doses at which mice fall off the screen due to toxicity or excitation are not included in the calculation of PD50.

Series [3] deals with Cats. Briefly: Unanesthetized Cat (minimum symptoms, usually ataxia). The note with it: Felis catus, oral, up to three cats/dose. It counts as in vivo. The procedure:
Cats are treated orally and observed for minimum symptoms-usually ataxia. One cat is used at a dose of 50 mg/kg. If activity is present, up to three cats/dose are used. Results are given as minimum effective dose.

Series [4] in a line: Toxicity (LD50). The note with it: in vivo, po.

The term minimal effective dose denotes the lowest level tested that produced the effect sought. Low readings indicate an effect from little substance, high ones a need for much substance. One may read the LD50 as the dose at which mortality reaches 50%. Low readings indicate a more toxic substance, high ones a less toxic substance. Turning to `CS(=O)(=O)O.Cc1[nH]cc2c1-c1ccc(Cl)cc1C(c1ccccc1F)=NC2` [8-Chloro-6-(2-fluorophenyl)-1-methyl-2H,4H-pyrrolo[3,4-d][2]benzazepine methanesulfonate], the ED100 in series [1] turned out to be 2 mg/kg. Further, in series [2], the ED50 was 400 mg/kg. The compound also yielded a minimal effective dose in series [3] of 2.5 mg/kg. The LD50 in series [4] is more than 1000 mg/kg.
For `Clc1ccc2c(c1)C(c1ccccc1Cl)=NCc1c[nH]cc1-2` [8-Chloro-6-(2-chlorophenyl)-2H,4H-pyrrolo[3,4-d][2]benzazepine], the ED100 in series [1] was determined as 1 mg/kg. In addition, the ED50 in series [2] came out at 400 mg/kg. The compound also came in with a minimal effective dose in series [3] of 0.25 mg/kg. For the same compound, the LD50 in series [4] was more than 1000 mg/kg.
Turning to `Clc1ccc2c(c1)C(c1ccccc1)=NCc1c[nH]cc1-2` [8-Chloro-6-phenyl-2H,4H-pyrrolo[3,4-d][2]benzazepine], in series [1], the ED100 worked out at 25 mg/kg. Further, the ED50 in series [2] stood at 400 mg/kg. In addition, the minimal effective dose in series [3] is 2.5 mg/kg. Besides, the median lethal dose (LD50) in series [4] is more than 1000 mg/kg.

The values above are taken from patent publication US4354973A, “Pyrrolo[3,4-d][2]benzazepines” (Hoffmann-La Roche Inc., priority 1981, dated 1982).
